Measured values as given in patent US20180327396A1, “NOVEL PYRIDINE DERIVATIVES” (Hoffmann-La Roche Inc., priority 2014, published 2018).

Biological target: T1, human CB2 receptors (Homo sapiens, UniProt P34972)
T1 construct: expressed in transfected cells; host or cells: CHO cells
Experiment: cAMP assay
Assay type: cell-based
Settings: not given
Description: CHO cells expressing human CB1 or CB2 receptors are seeded 17-24 hours prior to the experiment 50.000 cells per well in a black 96 well plate with flat clear bottom (Corning Costar #3904) in DMEM (Invitrogen No. 31331), 1× HT supplement, with 10% fetal calf serum and incubated at 5% CO2 and 37° C. in a humidified incubator. The growth medium was exchanged with Krebs Ringer Bicarbonate buffer with 1 mM IBMX and incubated at 30° C. for 30 min. Compounds were added to a final assay volume of 100 μl and incubated for 30 min at 30° C. Using the cAMP-Nano-TRF detection kit the assay (Roche Diagnostics) was stopped by the addition of 50 μl lysis reagent (Tris, NaCl, 1.5% Triton X100, 2.5% NP40, 10% NaN3) and 50 μl detection solutions (20 μM mAb Alexa700-cAMP 1:1, and 48 μM Ruthenium-2-AHA-cAMP) and shaken for 2 h at room temperature. The time-resolved energy transfer is measured by a TRF reader (Evotec Technologies GmbH), equipped with a ND:YAG laser as excitation source. The plate is measured twice with the excitation at 355 nm and at the emission with a delay of 100 ns and a gate of 100 ns, total exposure time 10 s at 730 (bandwidth 30 nm) or 645 nm (bandwidth 75 nm), respectively. The FRET signal is calculated as follows: FRET=T730−Alexa730−P(T645−B645) with P=Ru730−B730/Ru645−B645, where T730 is the test well measured at […], T645 is the test well measured at 645 nm, B730 and B645 are the buffer controls at 730 nm and 645 nm, respectively. cAMP content is determined from the function of a standard curve spanning from 10 μM to 0.13 nM cAMP.
EC50 values were determined using Activity Base analysis (ID Business Solution, Limited). The EC50 values for a wide range of cannabinoid agonists generated from this assay for reference compounds were in agreement with the values published in the scientific literature.

T1 sequence (P34972 whole entry): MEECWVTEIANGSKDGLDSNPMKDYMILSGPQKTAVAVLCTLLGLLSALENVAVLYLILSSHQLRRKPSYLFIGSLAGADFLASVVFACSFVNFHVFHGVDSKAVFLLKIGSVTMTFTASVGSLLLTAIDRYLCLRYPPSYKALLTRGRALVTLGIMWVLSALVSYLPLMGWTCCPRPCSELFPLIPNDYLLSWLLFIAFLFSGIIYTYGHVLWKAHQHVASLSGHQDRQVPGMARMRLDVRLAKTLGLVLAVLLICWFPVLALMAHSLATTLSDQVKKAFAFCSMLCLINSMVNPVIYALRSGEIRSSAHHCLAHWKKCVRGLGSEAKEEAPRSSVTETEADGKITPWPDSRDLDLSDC

In order of falling EC50:
1. NC(=O)[C@H]1CSCCN1C(=O)c1cnc(C2CC2)c(OCC2CC2)n1 [Example 23, (+)-4-[5-Cyclopropyl-6-(cyclopropylmethoxy)pyrazine-2-carbonyl]thiomorpholine-3-carboxamide]  589 nM
2. COCCOc1cccc(C(=O)NC(C)(C)Cc2nc(-c3ccccc3)no2)n1 [Example 11, 6-(2-Methoxyethoxy)-N-[2-methyl-1-(3-phenyl-1,2,4-oxadiazol-5-yl)propan-2-yl]pyridine-2-carboxamide]  573 nM
3. CC(C)(Cc1nnc(C2CC2)o1)NC(=O)c1cccc(-c2ccc(Cl)cc2)n1 [Example 1, 6-(4-Chlorophenyl)-N-[1-(5-cyclopropyl-1,3,4-oxadiazol-2-yl)-2-methylpropan-2-yl]pyridine-2-carboxamide]  497 nM
4. CC(C)(Cc1nc(-c2ccccc2)no1)NC(=O)c1cccc(-c2ccc(Cl)cc2)n1 [Example 4, 6-(4-Chlorophenyl)-N-[2-methyl-1-(3-phenyl-1,2,4-oxadiazol-5-yl)propan-2-yl]pyridine-2-carboxamide]  339 nM
5. CC(C)(Cc1nnc(C2CCC2)o1)NC(=O)c1cccc(-c2cccc(Cl)c2)n1 [Example 13, 6-(3-Chlorophenyl)-N-[1-(5-cyclobutyl-1,3,4-oxadiazol-2-yl)-2-methylpropan-2-yl]pyridine-2-carboxamide]  294 nM
6. CC(C)(Cc1nnc(-c2ccccc2)o1)NC(=O)c1ccc(C2CC2)c(-c2ccc(Cl)cc2)n1 [Example 10, 6-(4-Chlorophenyl)-5-cyclopropyl-N-[2-methyl-1-(5-phenyl-1,3,4-oxadiazol-2-yl)propan-2-yl]pyridine-2-carboxamide]  265 nM
7. CC(C)(Cc1nc(C2CC2)no1)NC(=O)c1cccc(-c2cccc(Cl)c2)n1 [Example 7, 6-(3-Chlorophenyl)-N-[1-(3-cyclopropyl-1,2,4-oxadiazol-5-yl)-2-methylpropan-2-yl]pyridine-2-carboxamide]  244 nM
8. CC(C)(NC(=O)c1cccc(-c2ccc(Cl)cc2Cl)n1)c1nnc(-c2ccccc2)o1 [Example 14, 6-(2,4-Dichlorophenyl)-N-[2-(5-phenyl-1,3,4-oxadiazol-2-yl)propan-2-yl]pyridine-2-carboxamide]  227 nM
9. CC(C)(CO)n1cc(NC(=O)c2ccc(C3CC3)c(OCC3CC3)n2)cn1 [Example 17, 5-Cyclopropyl-6-(cyclopropylmethoxy)-N-[1-(1-hydroxy-2-methylpropan-2-yl)pyrazol-4-yl]pyridine-2-carboxamide]  224 nM
10. COCCOCC(C)(C)c1cc(NC(=O)c2ccc(N3CC(F)(F)C3)c(OCC3CC3)n2)on1 [Example 16, 6-(Cyclopropylmethoxy)-5-(3,3-difluoroazetidin-1-yl)-N-[3-[1-(2-methoxyethoxy)-2-methylpropan-2-yl]-1,2-oxazol-5-yl]pyridine-2-carboxamide]  218 nM
11. CC(C)(Cc1nnc(-c2ccccc2)o1)NC(=O)c1cccc(-c2cccc(Cl)c2)n1 [Example 6, 6-(3-Chlorophenyl)-N-[2-methyl-1-(5-phenyl-1,3,4-oxadiazol-2-yl)propan-2-yl]pyridine-2-carboxamide]  182 nM
12. CC(C)(CO)c1cc(NC(=O)c2ccc(C3CC3)c(OCC3CC3)n2)on1 [Example 19, 5-Cyclopropyl-6-(cyclopropylmethoxy)-N-[3-(1-hydroxy-2-methylpropan-2-yl)-1,2-oxazol-5-yl]pyridine-2-carboxamide]  139 nM
13. CC(C)(Cc1nnc(-c2ccccc2)o1)NC(=O)c1cccc(OCC(F)(F)F)n1 [Example 3, N-[2-Methyl-1-(5-phenyl-1,3,4-oxadiazol-2-yl)propan-2-yl]-6-(2,2,2-trifluoroethoxy)pyridine-2-carboxamide]  132 nM
14. Cc1nnc(C(C)(C)NC(=O)c2cccc(-c3ccc(Cl)cc3Cl)n2)o1 [Example 15, 6-(2,4-Dichlorophenyl)-N-[2-(5-methyl-1,3,4-oxadiazol-2-yl)propan-2-yl]pyridine-2-carboxamide]  107 nM
15. CC(C)(C)OC(=O)N1CCOC(CNC(=O)c2ccc(C3CC3)c(Cc3ccc(F)cc3)n2)C1 (stereo not drawn) [Example 22, tert-Butyl 2-[[[5-cyclopropyl-6-[(4-fluorophenyl)methyl]pyridine-2-carbonyl]amino]methyl]morpholine-4-carboxylate]  101 nM
16. O=C(NC12CC3CC(CC(O)(C3)C1)C2)c1ccc(N2CC(F)(F)C2)c(OCC2CC2)n1 [Example 21, 6-(Cyclopropylmethoxy)-5-(3,3-difluoroazetidin-1-yl)-N-(3-hydroxy-1-adamantyl)pyridine-2-carboxamide]  81.6 nM
17. CC(C)(COC1CCCCO1)c1cc(NC(=O)c2cnc(C3CC3)c(OCC3CC3)n2)on1 (stereo not drawn) [Example 24, 5-Cyclopropyl-6-(cyclopropylmethoxy)-N-[3-[2-methyl-1-(oxan-2-yloxy)propan-2-yl]-1,2-oxazol-5-yl]pyrazine-2-carboxamide]  75.2 nM
18. CC(C)(CO)c1cc(NC(=O)c2cnc(C3CC3)c(OCC3CC3)n2)on1 [Example 25, 5-Cyclopropyl-6-(cyclopropylmethoxy)-N-[3-(1-hydroxy-2-methylpropan-2-yl)-1,2-oxazol-5-yl]pyrazine-2-carboxamide]  51.6 nM
19. CC(C)(Cc1nnc(-c2ccccc2)o1)NC(=O)c1ccc(Nc2ccc(Cl)cc2Cl)c(Cl)n1 [Example 9, 6-Chloro-5-(2,4-dichloroanilino)-N-[2-methyl-1-(5-phenyl-1,3,4-oxadiazol-2-yl)propan-2-yl]pyridine-2-carboxamide]  36.7 nM
20. COCCOCC(C)(C)c1cc(NC(=O)c2ccc(C3CC3)c(OCC3CC3)n2)on1 [Example 18, 5-Cyclopropyl-6-(cyclopropylmethoxy)-N-[3-[1-(2-methoxyethoxy)-2-methylpropan-2-yl]-1,2-oxazol-5-yl]pyridine-2-carboxamide]  35.2 nM
21. CCOCCOCC(C)(C)c1cc(NC(=O)c2ccc(C3CC3)c(OCC3CC3)n2)on1 [Example 20, 5-Cyclopropyl-6-(cyclopropylmethoxy)-N-[3-[1-(2-ethoxyethoxy)-2-methylpropan-2-yl]-1,2-oxazol-5-yl]pyridine-2-carboxamide]  22.5 nM
22. CC(C)(CN=[N+]=[N-])c1cc(NC(=O)c2cnc(C3CC3)c(OCC3CC3)n2)on1 [Example 26, N-[3-(1-Azido-2-methylpropan-2-yl)-1,2-oxazol-5-yl]-5-cyclopropyl-6-(cyclopropylmethoxy)pyrazine-2-carboxamide]  12.4 nM

Same assay, conditions: CHO cells expressing human CB2 receptors; read-out: cAMP assay human CB2 EC50

In order of rising EC50:
1. CC(C)(Cc1nnc(-c2ccccc2)o1)NC(=O)c1cccc(-c2ccc(Cl)cc2)n1 [Example 2, 6-(4-Chlorophenyl)-N-[2-methyl-1-(5-phenyl-1,3,4-oxadiazol-2-yl)propan-2-yl]pyridine-2-carboxamide]  165 nM
2. COCCOCC(C)(C)c1cc(NC(=O)c2ccc(C3CCCC3)c(OCC3CC3)n2)on1 [Example 29, 5-Cyclopentyl-6-(cyclopropylmethoxy)-N-[3-[1-(2-methoxyethoxy)-2-methylpropan-2-yl]-1,2-oxazol-5-yl]pyridine-2-carboxamide]  175 nM
3. CCOCCOCC(C)(C)c1cc(NC(=O)c2ccc(C3CCCC3)c(OCC3CC3)n2)on1 [Example 30, 5-Cyclopentyl-6-(cyclopropylmethoxy)-N-[3-[1-(2-ethoxyethoxy)-2-methylpropan-2-yl]-1,2-oxazol-5-yl]pyridine-2-carboxamide]  176 nM
4. CC(C)(Cc1nc(-c2ccccc2)no1)NC(=O)c1cccc(-c2cccc(Cl)c2)n1 [Example 8, 6-(3-Chlorophenyl)-N-[2-methyl-1-(3-phenyl-1,2,4-oxadiazol-5-yl)propan-2-yl]pyridine-2-carboxamide]  194 nM
5. CC(C)(Cc1nc(-c2ccccc2)no1)NC(=O)c1cccc(OCC(F)(F)F)n1 [Example 5, N-[2-Methyl-1-(3-phenyl-1,2,4-oxadiazol-5-yl)propan-2-yl]-6-(2,2,2-trifluoroethoxy)pyridine-2-carboxamide]  554 nM
6. CC(C)(Cc1nc(-c2ccccc2)no1)NC(=O)c1cccc(N2CCCC2=O)n1 [Example 12, N-[2-Methyl-1-(3-phenyl-1,2,4-oxadiazol-5-yl)propan-2-yl]-6-(2-oxopyrrolidin-1-yl)pyridine-2-carboxamide]  662 nM
7. CC(C)(Cc1nnc(-c2ccc(F)cc2)o1)NC(=O)c1ccc(C2CCCC2)c(OCC2CC2)n1 [Example 28, 5-Cyclopentyl-6-(cyclopropylmethoxy)-N-[1-[5-(4-fluorophenyl)-1,3,4-oxadiazol-2-yl]-2-methylpropan-2-yl]pyridine-2-carboxamide]  2760 nM
8. CC(C)(Cc1nnc(-c2ccc(F)cc2)o1)NC(=O)c1ccc(N2CC(F)(F)C2)c(OCC2CC2)n1 [Example 27, 6-(Cyclopropylmethoxy)-5-(3,3-difluoroazetidin-1-yl)-N-[1-[5-(4-fluorophenyl)-1,3,4-oxadiazol-2-yl]-2-methylpropan-2-yl]pyridine-2-carboxamide]  2890 nM
